pIC50: −log10 of the molar value.
Legend:
Format in all cases: functional, cell-based
[1] = tested on: MCF7; test: Cytotoxicity against human MCF7 cells after 48 hrs by WST-8 assay; details: MCF7, 48 h
[2] = tested on: NB-4; test: Cytotoxicity against human NB4 cells after 48 hrs by WST-8 assay; details: NB-4, 48 h
[3] = tested on: PC-3; test: Cytotoxicity against human PC3 cells after 48 hrs by WST-8 assay; details: PC-3, 48 h
[4] = tested on: SH-SY5Y; test: Cytotoxicity against human SH-SY5Y cells after 48 hrs by WST-8 assay
[5] = tested on: A549; test: Cytotoxicity against human A549 cells after 48 hrs by WST-8 assay; details: A549, 48 h

CC(=O)CC[C@H]1C(=O)[C@@]23[C@H](O)C[C@@H]4[C@@](C)(CO)CCC[C@@]4(C)[C@@H]2C(=O)[C@H](O)[C@H]1[C@H]3O
pIC50 [1]: < 5.00
pIC50 [2]: < 5.00
pIC50 [3]: < 5.00
pIC50 [4]: < 5.00
pIC50 [5]: < 5.00

COc1cc([C@@H]2c3cc4c(cc3[C@@H](O[C@@H]3O[C@@H]5CO[C@@H](C)O[C@H]5[C@H](O)[C@H]3O)[C@H]3COC(=O)[C@H]23)OCO4)cc(OC)c1O [ETOPOSIDE]
pIC50 [2]: 5.89
pIC50 [3]: 4.87
pIC50 [4]: 5.77
pIC50 [5]: 5.77

C=C1C(=O)[C@@]23[C@H](O)C[C@@H]4C(C)(C)CC[C@H](O)[C@@]4(C)[C@@H]2C[C@H](O)[C@@H]1[C@H]3O [EXCISANIN A]
pIC50 [1]: < 5.00
pIC50 [2]: 5.09
pIC50 [3]: < 5.00
pIC50 [4]: < 5.00
pIC50 [5]: < 5.00

C=C1C(=O)[C@@]23CC[C@@H]4[C@@](C)(CO)CC[C@H](O)[C@@]4(C)[C@@H]2CC[C@@H]1[C@H]3O [EXCISANIN K]
pIC50 [1]: < 5.00
pIC50 [2]: 5.06
pIC50 [3]: < 5.00
pIC50 [4]: < 5.00
pIC50 [5]: < 5.00

C=C1C(=O)[C@@]23[C@H](O)C[C@@H]4[C@@](C)(CO)CCC[C@@]4(C)[C@@H]2C(=O)C[C@@H]1[C@H]3O [HENRYINE A]
pIC50 [1]: < 5.00
pIC50 [2]: 5.64
pIC50 [3]: 5.15
pIC50 [4]: 5.29
pIC50 [5]: < 5.00

CC1(C)CCC[C@]2(C)[C@@H]1C[C@@H](O)[C@@]13C(=O)[C@@]4(CO4)[C@@H]([C@H]1O)[C@@H](O)C(=O)[C@@H]23 [ISOSCOPARIN D]
pIC50 [1]: < 5.00
pIC50 [2]: < 5.00
pIC50 [3]: < 5.00
pIC50 [4]: < 5.00
pIC50 [5]: < 5.00

C=C1[C@@H]2[C@@H](O)[C@H](O)[C@H]3[C@]4(C)CCCC(C)(C)[C@H]4CC(=O)[C@@]3([C@@H]1OC(C)=O)[C@@H]2O [ISOSCOPARIN F]
pIC50 [1]: 5.41
pIC50 [2]: 5.66
pIC50 [3]: < 5.00
pIC50 [4]: 5.04
pIC50 [5]: 5.00

C=C1[C@@H](O)[C@@]23[C@H](O)C[C@@H]4[C@@](C)(CO)CCC[C@@]4(C)[C@@H]2C(=O)C[C@@H]1[C@H]3O [ISOSCOPARIN H]
pIC50 [1]: < 5.00
pIC50 [2]: < 5.00
pIC50 [3]: < 5.00
pIC50 [4]: < 5.00
pIC50 [5]: < 5.00

C=C1C(=O)[C@@]23[C@H](O)C[C@H]4[C@@](C)(CCC[C@]4(C)C=O)[C@@H]2[C@@H](O)C[C@@H]1[C@H]3O [ISOSCOPARIN I]
pIC50 [1]: < 5.00
pIC50 [2]: 5.36
pIC50 [3]: < 5.00
pIC50 [4]: < 5.00
pIC50 [5]: < 5.00

C=C1C(=O)[C@@]23[C@H](O)C[C@@H]4C(C)(C)CCC[C@@]4(C)[C@@H]2C[C@H](O)[C@@H]1[C@H]3O [ISOSCOPARIN L]
pIC50 [1]: 5.66
pIC50 [2]: 6.15
pIC50 [3]: < 5.00
pIC50 [4]: 5.17
pIC50 [5]: 5.19

C=C1C(=O)[C@@]23[C@H](O)C[C@@H]4C(C)(C)CC[C@H](O)[C@@]4(C)[C@@H]2CC[C@@H]1[C@H]3O [KAMEBANIN]
pIC50 [1]: 5.08
pIC50 [2]: 6.05
pIC50 [3]: < 5.00
pIC50 [4]: 5.05
pIC50 [5]: 5.14

C=C1[C@@H](O)[C@]23[C@H](O)[C@H]1CC[C@H]2[C@@]12CO[C@@]3(O)[C@@H](O)[C@@H]1C(C)(C)CC[C@@H]2OC(C)=O [LASIOKAURINOL]
pIC50 [1]: < 5.00
pIC50 [2]: < 5.00
pIC50 [3]: < 5.00
pIC50 [4]: < 5.00
pIC50 [5]: < 5.00

CC(=O)O[C@H]1C(=O)[C@@]2(C)[C@H]([C@H](OC(=O)c3ccccc3)[C@]3(O)C[C@H](OC(=O)[C@H](O)[C@@H](NC(=O)c4ccccc4)c4ccccc4)C(C)=C1C3(C)C)[C@]1(OC(C)=O)CO[C@@H]1C[C@@H]2O [PACLITAXEL]
pIC50 [1]: 7.00
pIC50 [2]: 7.00
pIC50 [3]: 6.70
pIC50 [4]: 6.70
pIC50 [5]: 7.00

C=C1C(=O)[C@@]23[C@H](O)C[C@@H]4C(C)(C)CCC[C@@]4(C)[C@@H]2C(=O)[C@H](O)[C@@H]1[C@H]3O [PHYLLOSTACHYSIN D]
pIC50 [1]: < 5.00
pIC50 [2]: 6.52
pIC50 [3]: < 5.00
pIC50 [4]: < 5.00
pIC50 [5]: < 5.00

C=C1C(=O)[C@@]23CC[C@@H]4C(C)(C)CC[C@H](O)[C@@]4(C)[C@@H]2[C@@H](O)C[C@@H]1[C@H]3O [PHYLLOSTACHYSIN H]
pIC50 [1]: < 5.00
pIC50 [2]: < 5.00
pIC50 [3]: < 5.00
pIC50 [4]: < 5.00
pIC50 [5]: < 5.00

C=C1C(=O)[C@@]23[C@H](O)C[C@@H]4C(C)(C)CC[C@H](O)[C@@]4(C)[C@@H]2[C@@H](O)C[C@@H]1[C@H]3O [RABDOINFLEXIN B]
pIC50 [1]: < 5.00
pIC50 [2]: < 5.00
pIC50 [3]: < 5.00
pIC50 [4]: < 5.00
pIC50 [5]: < 5.00

C=C1C(=O)[C@@]23[C@H](O)C[C@@H]4C(C)(C)CCC[C@@]4(C)[C@@H]2[C@@H](O)[C@H](O)[C@@H]1[C@H]3OC(C)=O [RABDOKUNMIN A]
pIC50 [1]: < 5.00
pIC50 [2]: 5.57
pIC50 [3]: < 5.00
pIC50 [4]: < 5.00
pIC50 [5]: 5.55

C=C1C(=O)[C@@]23[C@H](O)C[C@@H]4[C@@](C)(CO)CCC[C@@]4(C)[C@@H]2C[C@H](O)[C@@H]1[C@H]3O [RABDOKUNMIN C]
pIC50 [1]: < 5.00
pIC50 [2]: < 5.00
pIC50 [3]: < 5.00
pIC50 [4]: < 5.00
pIC50 [5]: < 5.00

C=C1C(=O)[C@@]23[C@H](O)C[C@@H]4[C@@](C)(CO)CCC[C@@]4(C)[C@@H]2[C@@H](O)C[C@@H]1[C@H]3O [RABDOKUNMIN D]
pIC50 [1]: < 5.00
pIC50 [2]: < 5.00
pIC50 [3]: < 5.00
pIC50 [4]: < 5.00
pIC50 [5]: < 5.00

C=C1C(=O)[C@@]23[C@H](O)C[C@@H]4[C@@](C)(CO)CCC[C@@]4(C)[C@@H]2C(=O)[C@H](O)[C@@H]1[C@H]3O [RABDOLOXIN A]
pIC50 [1]: < 5.00
pIC50 [2]: < 5.00
pIC50 [3]: < 5.00
pIC50 [4]: < 5.00
pIC50 [5]: < 5.00

C=C1C(=O)[C@@]23[C@H](O)C[C@@H]4C(C)(C)CCC[C@@]4(C)[C@@H]2[C@@H](O)[C@H](O)[C@@H]1[C@H]3O [RABDOLOXIN B]
pIC50 [1]: < 5.00
pIC50 [2]: 5.55
pIC50 [3]: < 5.00
pIC50 [4]: < 5.00
pIC50 [5]: 5.77
